# Patent US9057727B2, “Screening methods using G-protein coupled receptors and related compositions” (The General Hospital Corporation, priority 2007, dated 2015)
# Ends that are not written are not given here. Peptide text beside a SMILES is read from it.
# Target: T1, human PTHR, G protein-uncoupled conformation (R^0) (Homo sapiens, UniProt Q03431)
# T1 construct: expressed in transfected cells; host or cells: COS-7, transient (Fugene-6)
# T1 sequence (Q03431 27-593): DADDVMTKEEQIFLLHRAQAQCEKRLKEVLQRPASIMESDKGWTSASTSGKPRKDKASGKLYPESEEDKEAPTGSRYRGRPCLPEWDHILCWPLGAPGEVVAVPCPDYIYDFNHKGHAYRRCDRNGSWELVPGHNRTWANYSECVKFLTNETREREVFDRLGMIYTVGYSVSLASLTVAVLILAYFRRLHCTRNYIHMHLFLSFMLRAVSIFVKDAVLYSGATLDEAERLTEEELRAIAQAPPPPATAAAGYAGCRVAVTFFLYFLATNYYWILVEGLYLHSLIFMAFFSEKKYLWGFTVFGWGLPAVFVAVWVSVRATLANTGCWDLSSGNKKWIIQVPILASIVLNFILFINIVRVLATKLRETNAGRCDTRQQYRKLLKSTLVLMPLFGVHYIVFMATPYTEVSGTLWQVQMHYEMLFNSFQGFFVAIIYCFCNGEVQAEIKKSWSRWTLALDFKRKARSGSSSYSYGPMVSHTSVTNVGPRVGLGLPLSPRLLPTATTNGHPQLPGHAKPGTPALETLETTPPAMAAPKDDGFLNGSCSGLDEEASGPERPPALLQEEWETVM
# Test: Competition binding to R0 conformation of hPTHR (COS-7 membranes, GTPγS, 125I-PTH(1-34) tracer)
# Conditions: Table 4; human PTH1 receptor; read-out: R0 binding IC50
# Procedure: Membranes were prepared from COS-7 cells transfected with the hPTHR alone. GTPγS ([…]) was added to the binding reactions so as to functionally uncouple receptor-heterotrimeric G protein complexes, thus enriching for the R^0 (and R) conformations, relative to RG.
# Reactions contained a total membrane protein concentration of 20 to 100 μg/mL, and a total radioactivity concentration of approximately 150,000 cpm/ml. Unlabeled peptide ligands and/or GTPγS (Sigma-Aldrich Inc. St. Louis, Mo.) were added to the reactions as indicated.
# Membranes, tracer radioligand, and various concentrations of unlabeled ligands and/or GTPγS were incubated in the wells for 90 minutes, following which, the reaction plates were processed by rapid vacuum filtration to separate bound from free radioligand, as described above. […] For both radioligands, the non-specific binding was determined in reactions containing a saturating concentration of the unlabeled analog of the radioligand. The specifically bound radioactivity was calculated as a percent of the radioactivity specifically bound in the absence of a competing ligand or GTPγS.
# To assess the capacities of various unlabeled peptide ligands to bind to the G protein-uncoupled and G protein-coupled PTHR conformations (R^0 and RG, respectively), membranes were prepared from transiently transfected COS-7 cells and the following assay conditions.
row,Compound,IC50 [nM]
1,"CC[C@H](C)[C@H](NC(=O)[C@H](CCC(=O)O)NC(=O)[C@H](C)NC(=O)[C@@H](NC(=O)[C@H](C)N)C(C)C)C(=O)N[C@@H](CCC(N)=O)C(=O)N[C@@H](CC(C)C)C(=O)N[C@@H](CCSC)C(=O)N[C@@H](Cc1c[nH]cn1)C(=O)N[C@@H](CCC(N)=O)C(=O)N[C@@H](CCCNC(=N)N)C(=O)N[C@@H](C)C(=O)N[C@@H](CCCCN)C(=O)N[C@@H](Cc1c[nH]c2ccccc12)C(=O)N[C@@H](CC(C)C)C(=O)N[C@@H](CC(N)=O)C(=O)N[C@@H](CO)C(=O)N[C@@H](CCSC)C(=O)N[C@@H](CCCNC(=N)N)C(=O)N[C@@H](CCCNC(=N)N)C(=O)N[C@H](C(=O)N[C@@H](CCC(=O)O)C(=O)N[C@@H](Cc1ccccc1)C(=O)N[C@@H](CC(C)C)C(=O)N[C@@H](CCCNC(=N)N)C(=O)N[C@@H](CCCCN)C(=O)N[C@@H](CCCCN)C(=O)N[C@@H](CC(C)C)C(=O)N[C@@H](CCC(N)=O)C(=O)N[C@@H](CC(=O)O)C(=O)N[C@H](C(=O)N[C@@H](Cc1c[nH]cn1)C(=O)N[C@@H](CC(N)=O)C(=O)N[C@@H](Cc1ccccc1)C(=O)O)C(C)C)C(C)C [F23,Mc-PTH(1-34)OH, F^23,Mc-PTH(1-34)OH] (H-AVAEIQLMHQRAKWLNSMRRVEFLRKKLQDVHNF-OH; N-terminus assumed)",1.2 ± 0.4

# Same assay, conditions: human PTH receptor on COS-7 cell membranes
row,Compound,R0/RG ratio
1,"CC[C@H](C)[C@H](NC(=O)[C@H](CCC(=O)O)NC(=O)[C@H](C)NC(=O)[C@@H](NC(=O)[C@H](C)N)C(C)C)C(=O)N[C@@H](CCC(N)=O)C(=O)N[C@@H](CC(C)C)C(=O)N[C@@H](CCSC)C(=O)N[C@@H](Cc1c[nH]cn1)C(=O)N[C@@H](CCC(N)=O)C(=O)N[C@@H](CCCNC(=N)N)C(=O)N[C@@H](C)C(=O)N[C@@H](CCCCN)C(=O)N[C@@H](Cc1c[nH]c2ccccc12)C(=O)N[C@@H](CC(C)C)C(=O)N[C@@H](CC(N)=O)C(=O)N[C@@H](CO)C(=O)N[C@@H](CCSC)C(=O)N[C@@H](CCCNC(=N)N)C(=O)N[C@@H](C)C(=O)N[C@H](C(=O)N[C@@H](CCC(=O)O)C(=O)N[C@@H](Cc1c[nH]c2ccccc12)C(=O)N[C@@H](CC(C)C)C(=O)N[C@@H](CCCNC(=N)N)C(=O)N[C@@H](CCCCN)C(=O)N[C@@H](CCCCN)C(=O)N[C@@H](CC(C)C)C(=O)N[C@@H](CCC(N)=O)C(=O)N[C@@H](CC(=O)O)C(=O)N[C@H](C(=O)N[C@@H](Cc1c[nH]cn1)C(=O)N[C@@H](CC(N)=O)C(=O)N[C@@H](Cc1ccccc1)C(=O)O)C(C)C)C(C)C [A20,Mc-PTH(1-34)OH, A^20,Mc-PTH(1-34)OH] (H-AVAEIQLMHQRAKWLNSMRAVEWLRKKLQDVHNF-OH; N-terminus assumed)",80
2,"CC[C@H](C)[C@H](NC(=O)[C@H](CCC(=O)O)NC(=O)[C@H](C)NC(=O)[C@@H](NC(=O)[C@H](C)N)C(C)C)C(=O)N[C@@H](CCC(N)=O)C(=O)N[C@@H](CC(C)C)C(=O)N[C@@H](CCSC)C(=O)N[C@@H](Cc1c[nH]cn1)C(=O)N[C@@H](CCC(N)=O)C(=O)N[C@@H](CCCNC(=N)N)C(=O)N[C@@H](C)C(=O)N[C@@H](CCCCN)C(=O)N[C@@H](Cc1c[nH]c2ccccc12)C(=O)N[C@@H](CC(C)C)C(=O)N[C@@H](CC(N)=O)C(=O)N[C@@H](CO)C(=O)N[C@@H](CCSC)C(=O)N[C@@H](CCCNC(=N)N)C(=O)N[C@@H](CCCNC(=N)N)C(=O)N[C@H](C(=O)N[C@@H](CCC(=O)O)C(=O)N[C@@H](Cc1ccccc1)C(=O)N[C@@H](CC(C)C)C(=O)N[C@@H](CCCNC(=N)N)C(=O)N[C@@H](CCCCN)C(=O)N[C@@H](CCCCN)C(=O)N[C@@H](CC(C)C)C(=O)N[C@@H](CCC(N)=O)C(=O)N[C@@H](CC(=O)O)C(=O)N[C@H](C(=O)N[C@@H](Cc1c[nH]cn1)C(=O)N[C@@H](CC(N)=O)C(=O)N[C@@H](Cc1ccccc1)C(=O)O)C(C)C)C(C)C [F23,Mc-PTH(1-34)OH, F^23,Mc-PTH(1-34)OH] (H-AVAEIQLMHQRAKWLNSMRRVEFLRKKLQDVHNF-OH; N-terminus assumed)",5

# Tested on: LLCPK1-B64 cells or SaOS-2 cells
# Test: cAMP screen of substituted PTHrP(1-28) analogs (% parent)
# Assay type: cell-based
# Conditions: parent PTHrP(1-28)NH
# Procedure: Alanine substitution at position 18, 22, 25 and 26 increased activity in at least one cell type. These positions were further substituted to various types of amino acids, and cAMP activity was analyzed in LLCPK1-B64 cells (FIG. 27C) or SaOS-2 cells (FIG. 27D). Cells were treated with analogs at 3×10^−9M in the presence of IBMX for 30 minutes at room temperature. Responses for each analog were normalized to the response for the parent (native) PTHrP(1-28) peptide. Alanine substitutions were A^15 to A^17 (SEQ ID NO:152-154), A^18 (SEQ ID NO:34), A^19 to A^21 (SEQ ID NO:155-157), A^22 (SEQ ID NO:39), A^23 to A^25 (SEQ ID NO:158-160), A^26 (SEQ ID NO:46), and A^27 to A^28 (SEQ ID NO:161-162). Substitutions at position 18 were A^18 (SEQ ID NO: 34), G^18 (SEQ ID NO:163), S^18 (SEQ ID NO:35), M^18 (SEQ ID NO:36), L^18 (SEQ ID NO:164), F^18 (SEQ ID NO:37), N^18 (SEQ ID NO:165), E^18 (SEQ ID NO:38), and K^18 (SEQ ID NO:166). Substitutions at position 22 were A^22 (SEQ ID NO:39), G^22 (SEQ ID NO:167), and S^22 to K^22 (SEQ ID NO:40-45). Substitutions at position 26 were A^26 (SEQ ID NO:46), G^26 (SEQ ID NO:168), S^26 (SEQ ID NO:47), L^26 (SEQ ID NO:169), N^26 (SEQ ID NO:48), W^26 to E^26 (SEQ ID NO:170-171), and K^26 to R^26 (SEQ ID NO:49-50). Substitutions at position 25 were G^25 to S^25 (SEQ ID NO:172-173), L^25 (SEQ ID NO:51), N^25 (SEQ ID NO:174), W^25 (SEQ ID NO:52), E^25 (SEQ ID NO:175), and K^25 to R^25 (SEQ ID NO:53-54). […]
row,Compound,screen cAMP (% parent)
1,"A18,22,F25,K26-PTHrP(1-28) (AVSEHQLLHDKGKSIQDARRRAFLFKLI-NH2) [A18, 22, F25, K26-PTHrP(1-28)NH]",337
2,"A18,22,I25,K26-PTHrP(1-28) (AVSEHQLLHDKGKSIQDARRRAFLIKLI-NH2) [A18, 22, I25, K26-PTHrP(1-28)NH]",342
3,"A18,22,W25,K26-PTHrP(1-28) (AVSEHQLLHDKGKSIQDARRRAFLWKLI-NH2) [A18, 22, W25, K26-PTHrP(1-28)NH]",329
4,A18-PTHrP(1-28) (AVSEHQLLHDKGKSIQDARRRFFLHHLI-NH2) [A18-PTHrP(1-28)NH],164
5,A22-PTHrP(1-28) (AVSEHQLLHDKGKSIQDLRRRAFLHHLI-NH2) [A22-PTHrP(1-28)NH],185
6,A26-PTHrP(1-28) (AVSEHQLLHDKGKSIQDLRRRFFLHALI-NH2) [A26-PTHrP(1-28)NH],142
7,"E18,A22,26-PTHrP(1-28) (AVSEHQLLHDKGKSIQDERRRAFLHALI-NH2) [E18, A22, 26-PTHrP(1-28)NH]",190
8,"E18,S22,K25,26-PTHrP(1-28) (AVSEHQLLHDKGKSIQDERRRSFLKKLI-NH2) [E18, S22, K25, 26-PTHrP(1-28)NH]",335
9,E18-PTHrP(1-28) (AVSEHQLLHDKGKSIQDERRRFFLHHLI-NH2) [E18-PTHrP(1-28)NH],140
10,E22-PTHrP(1-28) (AVSEHQLLHDKGKSIQDLRRREFLHHLI-NH2) [E22-PTHrP(1-28)NH],121
11,F18-PTHrP(1-28) (AVSEHQLLHDKGKSIQDFRRRFFLHHLI-NH2) [F18-PTHrP(1-28)NH],109
12,K22-PTHrP(1-28) (AVSEHQLLHDKGKSIQDLRRRKFLHHLI-NH2) [K22-PTHrP(1-28)NH],150
13,K25-PTHrP(1-28) (AVSEHQLLHDKGKSIQDLRRRFFLKHLI-NH2) [K25-PTHrP(1-28)NH],163
14,K26-PTHrP(1-28) (AVSEHQLLHDKGKSIQDLRRRFFLHKLI-NH2) [K26-PTHrP(1-28)NH],142
15,L22-PTHrP(1-28) (AVSEHQLLHDKGKSIQDLRRRLFLHHLI-NH2) [L22-PTHrP(1-28)NH],142
16,L25-PTHrP(1-28) (AVSEHQLLHDKGKSIQDLRRRFFLLHLI-NH2) [L25-PTHrP(1-28)NH],325
17,M18-PTHrP(1-28) (AVSEHQLLHDKGKSIQDMRRRFFLHHLI-NH2) [M18-PTHrP(1-28)NH],113
18,N22-PTHrP(1-28) (AVSEHQLLHDKGKSIQDLRRRNFLHHLI-NH2) [N22-PTHrP(1-28)NH],138
19,N26-PTHrP(1-28) (AVSEHQLLHDKGKSIQDLRRRFFLHNLI-NH2) [N26-PTHrP(1-28)NH],113
20,R25-PTHrP(1-28) (AVSEHQLLHDKGKSIQDLRRRFFLRHLI-NH2) [R25-PTHrP(1-28)NH],204
21,R26-PTHrP(1-28) (AVSEHQLLHDKGKSIQDLRRRFFLHRLI-NH2) [R26-PTHrP(1-28)NH],143
22,S18-PTHrP(1-28) (AVSEHQLLHDKGKSIQDSRRRFFLHHLI-NH2) [S18-PTHrP(1-28)NH],121
23,S22-PTHrP(1-28) (AVSEHQLLHDKGKSIQDLRRRSFLHHLI-NH2) [S22-PTHrP(1-28)NH],141
24,S26-PTHrP(1-28) (AVSEHQLLHDKGKSIQDLRRRFFLHSLI-NH2) [S26-PTHrP(1-28)NH],107
25,W22-PTHrP(1-28) (AVSEHQLLHDKGKSIQDLRRRWFLHHLI-NH2) [W22-PTHrP(1-28)NH],129
26,W25-PTHrP(1-28) (AVSEHQLLHDKGKSIQDLRRRFFLWHLI-NH2) [W25-PTHrP(1-28)NH],270
